Laboratory results taken from patent US20260242372A1, “NOVEL IMIDAZOPYRIDINE AND PYRAZOLOPYRIDINE SULFONAMIDE DERIVATIVES” (Hoffmann-La Roche Inc., priority 2022, published 2026).

These compounds were tested against human GPR17 short isoform (Homo sapiens, UniProt Q13304) (assay: GPR17 cAMP assay (hGPR17 cAMP, TR-FRET, antagonist mode)). Conditions: CHO-K1 cells stably expressing human GPR17 short isoform; EC80 of agonist MDL29,951; forskolin 15 μM; 30 min at room temperature.
Type: cell-based

Sequence of human GPR17 short isoform (Q13304 29-367): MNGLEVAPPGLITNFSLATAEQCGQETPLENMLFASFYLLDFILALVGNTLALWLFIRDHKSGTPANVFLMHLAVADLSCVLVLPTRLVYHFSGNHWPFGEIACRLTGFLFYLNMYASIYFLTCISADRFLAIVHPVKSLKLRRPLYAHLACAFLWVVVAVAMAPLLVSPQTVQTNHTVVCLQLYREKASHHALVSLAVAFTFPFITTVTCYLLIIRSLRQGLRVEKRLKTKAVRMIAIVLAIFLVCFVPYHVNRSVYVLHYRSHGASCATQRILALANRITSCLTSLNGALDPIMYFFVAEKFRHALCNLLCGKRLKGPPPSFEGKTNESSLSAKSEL

IC50 | SMILES
217 nM | COc1nc(OCC(F)F)c(F)cc1NS(=O)(=O)c1cnc2n1CCC(OC)C2 (centres unmarked) [Example 62, N-[6-(2,2-difluoroethoxy)-5-fluoro-2-methoxy-3-pyridyl]-7-methoxy-5,6,7,8-tetrahydroimidazo[1,2-a]pyridine-3-sulfonamide]
251 nM | N#CCc1cc(F)c(NS(=O)(=O)c2cnc3cc(Cl)ccn23)cc1F [Example 64, 7-chloro-N-(4-(cyanomethyl)-2,5-difluorophenyl)imidazo[1,2-a]pyridine-3-sulfonamide]
10 nM | COc1nc(OCC(F)F)c(F)cc1NS(=O)(=O)c1cnn2cc(Br)ccc12 [Example 78, 6-bromo-N-[6-(2,2-difluoroethoxy)-5-fluoro-2-methoxy-3-pyridyl]pyrazolo[1,5-a]pyridine-3-sulfonamide]
9 nM | COc1nc(OCC(F)F)c(F)cc1NS(=O)(=O)c1cnc2c(F)c(Cl)ccn12 [Example 7, 7-chloro-N-[6-(2,2-difluoroethoxy)-5-fluoro-2-methoxy-3-pyridyl]-8-fluoro-imidazo[1,2-a]pyridine-3-sulfonamide]
52 nM | COc1nc(NS(=O)(=O)c2cnc3nc(C4CC4)ccn23)c(F)cc1CC(F)F [Example 36, 7-cyclopropyl-N-[5-(2,2-difluoroethyl)-3-fluoro-6-methoxy-2-pyridyl]imidazo[1,2-a]pyrimidine-3-sulfonamide]
21 nM | COc1nc(NS(=O)(=O)c2cnc3cc(Br)ccn23)c(F)cc1CC#N [Example 21, 7-bromo-N-[5-(cyanomethyl)-3-fluoro-6-methoxy-2-pyridyl]imidazo[1,2-a]pyridine-3-sulfonamide]
83 nM | COc1nc(NS(=O)(=O)c2cnc3cc(Br)ccn23)c(F)cc1OCCF [Example 47, 7-bromo-N-[3-fluoro-5-(2-fluoroethoxy)-6-methoxy-2-pyridyl]imidazo[1,2-a]pyridine-3-sulfonamide]
367 nM | COc1nc(C2COC2)c(F)cc1NS(=O)(=O)c1cnn2cc(Br)ccc12 [Example 87, 6-bromo-N-[5-fluoro-2-methoxy-6-(oxetan-3-yl)-3-pyridyl]pyrazolo[1,5-a]pyridine-3-sulfonamide]
27 nM | COc1nc(OCC(F)F)c(F)cc1NS(=O)(=O)c1cnc2nc(Br)ccn12 [Example 105, 7-bromo-N-[6-(2,2-difluoroethoxy)-5-fluoro-2-methoxy-3-pyridyl]imidazo[1,2-a]pyrimidine-3-sulfonamide]
181 nM | COc1c(Cl)ccn2c(S(=O)(=O)Nc3cc(F)c(CC#N)cc3F)cnc12 [Example 61, 7-chloro-N-[4-(cyanomethyl)-2,5-difluoro-phenyl]-8-methoxy-imidazo[1,2-a]pyridine-3-sulfonamide]
37 nM | COc1nc(OCC(F)F)c(F)cc1NS(=O)(=O)c1cnc2cc(C3COC3)ccn12 [Example 100, N-[6-(2,2-difluoroethoxy)-5-fluoro-2-methoxy-3-pyridyl]-7-(oxetan-3-yl)imidazo[1,2-a]pyridine-3-sulfonamide]
